Experimental data reported in publication PMC7464159, “Triple Negative Breast Cancer and Breast Epithelial Cells Differentially Reprogram Glucose and Lipid Metabolism upon Treatment with Triterpenic Acids” (Biomolecules, 2020).

Tested on: MDA-MB-231 cells
Assay: 1H NMR metabolomics of polar (aqueous) cell extracts
Format: cell-based, human
Procedure: MDA-MB-231 and MCF-10A cells were seeded in 10-cm-diameter Petri dishes at a density of 6 × 10^5 cells/mL (10 mL per dish) and cultured for 24 h at 37 °C. […] Vehicle solvent control cells received DMSO (0.10% v/v). Samples were collected immediately after 48 h incubation or, to assess cellular recovery, medium was replaced with fresh growth medium (without TAs), and cells were incubated for additional 24 h before collection (48 + 24 h samples). Four independent assays were performed.
After incubation, culture medium was collected and centrifuged (1000× g, 5 min) and the supernatant stored at −80 °C until analysis. Culture medium without cells was placed under the same conditions and collected. Cell extraction was performed as described by Carrola et al.. Briefly, cells were washed four times with PBS and extracted with a mixture of methanol:chloroform:water (1:1:0.7). The resulting polar and organic phases were collected and then dried under vacuum or under a stream of nitrogen gas, respectively. All samples were stored at −80 °C and, at the time of analysis, dried polar extracts were reconstituted in 600 µL of deuterated phosphate buffer (100 mM, pH 7.4) containing 0.1 mM TSP-d4, while organic extracts were reconstituted in deuterated chloroform containing 0.03% TMS. Regarding medium samples, 540 μL were mixed with 60 μL of D2O containing 0.25% TSP-d4. Prior to analysis, 550 μL of each sample were transferred to 5 mm NMR tubes.
^1H NMR spectra of all samples were acquired on a Bruker Avance III HD 500 NMR spectrometer (University of Aveiro, Portuguese NMR Network) operating at 500.13 MHz for ^1H observation equipped with a 5 mm TXI probe. Standard 1D spectra (Bruker pulse programs ‘noesypr1d’, with water suppression, for medium samples and aqueous extracts, and ‘zg’ for organic extracts) were recorded with a 7002.8 Hz spectral width, 32 k data points, a 2 s relaxation delay and 512 scans. Spectral processing comprised exponential multiplication with 0.3 Hz line broadening, zero filling to 64 k data points, manual phasing, baseline correction, and chemical shift calibration to the TSP or TMS signal at 0 ppm. 2D ^1H-^1H total correlation (TOCSY) spectra, ^1H-^13C heteronuclear single quantum correlation (HSQC) spectra and J-resolved spectra were also registered for selected samples to assist spectral assignment. Metabolites were identified with the support of 2D spectra and the spectral reference databases BBIOREFCODE-2-0-0 (Bruker Biospin, Rheinstetten, Germany) and HMDB [28]. Selected signals were then integrated using the AmixViewer software […] (version 3.9.14, Bruker BioSpin, Rheinstetten, Germany) and normalized by the total spectral area. The magnitude of each metabolite change was assessed through the percentage of variation (and its respective error) in exposed samples relatively to controls, and through the effect size (ES) adjusted for small sample numbers (and respective standard error). Metabolite variations with absolute ES greater than 0.8 were expressed in a heatmap, colored as a function of the percentage of variation, employing the R statistical software.

For C=C(C)[C@@H]1CC[C@]2(C(=O)O)CC[C@]3(C)[C@H](CC[C@@H]4[C@@]5(C)CC[C@H](O)C(C)(C)[C@@H]5CC[C@]43C)[C@@H]12 [BA, betulinic acid], the ATP %var (BA 5µM, 48h) was 0%, the Acetate %var (BA 5µM, 48h) was 0% and the Ala %var (BA 5µM, 48h) was -12.64%. For the same compound, the Asp %var (BA 5µM, 48h) was -30.52%, the Choline %var (BA 5µM, 48h) was 10.16% and the Citrate %var (BA 5µM, 48h) was -40.97%. It also gave a Cr %var (BA 5µM, 48h) of 22.45%, a Fumarate %var (BA 5µM, 48h) of -35.42% and a GPC %var (BA 5µM, 48h) of 13.50%. The GSH %var (BA 5µM, 48h) was -15.77%, the Gln %var (BA 5µM, 48h) was -28.49% and the Glu %var (BA 5µM, 48h) was -24.61%. For the same compound, the Gly %var (BA 5µM, 48h) was 0%, the Ile %var (BA 5µM, 48h) was 14.68% and the Lactate %var (BA 5µM, 48h) was 53.08%. It also gave a Leu %var (BA 5µM, 48h) of 15.91%, a PC %var (BA 5µM, 48h) of -24.96% and a PCr %var (BA 5µM, 48h) of -19.36%. For the same compound, the Phe %var (BA 5µM, 48h) was 6.80%, the Pro %var (BA 5µM, 48h) was 16.73% and the Tau %var (BA 5µM, 48h) was 6.09%. The Tyr %var (BA 5µM, 48h) was 8.11%, the Val %var (BA 5µM, 48h) was 18.46% and the myo-Ino %var (BA 5µM, 48h) was -8.23%. For the same compound, the ATP %var (BA 5µM, 48h+24h) was -7.54%, the Acetate %var (BA 5µM, 48h+24h) was 0% and the Ala %var (BA 5µM, 48h+24h) was -7.44%. It also gave an Asp %var (BA 5µM, 48h+24h) of 0%, a Choline %var (BA 5µM, 48h+24h) of 0% and a Citrate %var (BA 5µM, 48h+24h) of -12.45%. For the same compound, the Cr %var (BA 5µM, 48h+24h) was 0%, the Fumarate %var (BA 5µM, 48h+24h) was 0% and the GPC %var (BA 5µM, 48h+24h) was 0%. The GSH %var (BA 5µM, 48h+24h) was 0%, the Gln %var (BA 5µM, 48h+24h) was 0% and the Glu %var (BA 5µM, 48h+24h) was 0%. It also gave a Gly %var (BA 5µM, 48h+24h) of -8.57%, an Ile %var (BA 5µM, 48h+24h) of 0% and a Lactate %var (BA 5µM, 48h+24h) of 0%. It also gave a Leu %var (BA 5µM, 48h+24h) of 0%, a PC %var (BA 5µM, 48h+24h) of 0% and a PCr %var (BA 5µM, 48h+24h) of 0%. The Phe %var (BA 5µM, 48h+24h) was 0%, the Pro %var (BA 5µM, 48h+24h) was 0% and the Tau %var (BA 5µM, 48h+24h) was 0%. The Tyr %var (BA 5µM, 48h+24h) was 0%, the Val %var (BA 5µM, 48h+24h) was 0% and the myo-Ino %var (BA 5µM, 48h+24h) was -6.52%. The ATP %var (BA 15µM, 48h) was 0%, the Acetate %var (BA 15µM, 48h) was 21.07% and the Ala %var (BA 15µM, 48h) was -10.34%. It also gave an Asp %var (BA 15µM, 48h) of -12.45%, a Choline %var (BA 15µM, 48h) of 12.46% and a Citrate %var (BA 15µM, 48h) of -51.74%. For the same compound, the Cr %var (BA 15µM, 48h) was 18.99%, the Fumarate %var (BA 15µM, 48h) was -37.50% and the GPC %var (BA 15µM, 48h) was 26.27%. It also gave a GSH %var (BA 15µM, 48h) of -25.87%, a Gln %var (BA 15µM, 48h) of -20.94% and a Glu %var (BA 15µM, 48h) of -37.41%. The Gly %var (BA 15µM, 48h) was -9.59%, the Ile %var (BA 15µM, 48h) was 30.97% and the Lactate %var (BA 15µM, 48h) was 55.73%. For the same compound, the Leu %var (BA 15µM, 48h) was 33.86%, the PC %var (BA 15µM, 48h) was -38.62% and the PCr %var (BA 15µM, 48h) was -22.44%. For the same compound, the Phe %var (BA 15µM, 48h) was 24.06%, the Pro %var (BA 15µM, 48h) was 21.93% and the Tau %var (BA 15µM, 48h) was 7.79%. The Tyr %var (BA 15µM, 48h) was 28.53%, the Val %var (BA 15µM, 48h) was 38.79% and the myo-Ino %var (BA 15µM, 48h) was -18.58%. The “number of intracellular polar metabolites consistently altered” value (BA 15µM, 48h) was 23, the ATP %var (BA 15µM, 48h+24h) was -15.36% and the Acetate %var (BA 15µM, 48h+24h) was 22.70%. It also gave an Ala %var (BA 15µM, 48h+24h) of -12.62%, an Asp %var (BA 15µM, 48h+24h) of 0% and a Choline %var (BA 15µM, 48h+24h) of 0%. The Citrate %var (BA 15µM, 48h+24h) was -19.78%, the Cr %var (BA 15µM, 48h+24h) was 0% and the Fumarate %var (BA 15µM, 48h+24h) was 0%. The GPC %var (BA 15µM, 48h+24h) was 0%, the GSH %var (BA 15µM, 48h+24h) was 0% and the Gln %var (BA 15µM, 48h+24h) was -5.26%. For the same compound, the Glu %var (BA 15µM, 48h+24h) was -11.90%, the Gly %var (BA 15µM, 48h+24h) was -31.75% and the Ile %var (BA 15µM, 48h+24h) was 0%. The Lactate %var (BA 15µM, 48h+24h) was 0%, the Leu %var (BA 15µM, 48h+24h) was 0% and the PC %var (BA 15µM, 48h+24h) was 0%. The PCr %var (BA 15µM, 48h+24h) was -14.19%, the Phe %var (BA 15µM, 48h+24h) was 0% and the Pro %var (BA 15µM, 48h+24h) was 0%. It also gave a Tau %var (BA 15µM, 48h+24h) of 0%, a Tyr %var (BA 15µM, 48h+24h) of 0% and a Val %var (BA 15µM, 48h+24h) of 0%. It also gave a myo-Ino %var (BA 15µM, 48h+24h) of -17.84%.
